From patent publication EP4610269A1, “UROKINASE PLASMINOGEN ACTIVATOR SURFACE RECEPTOR (UPAR) LIGANDS FOR DIAGNOSTIC OR THERAPEUTIC USE” (3B Pharmaceuticals GmbH, priority 2024, dated 2025)
Where a SMILES comes first, the peptide text is derived from it. Bridges are numbered along the chain shown (N, C = ends). [ ]: non-standard residue; d: D form. The star is where a group is joined. DOTA = O=C(O)CN1CCN(CC(=O)O)CCN(CC(=O)*)CCN(CC(=O)O)CC1; Pro(cis-4-F) = O=C(O)[C@@H]1C[C@H](F)CN1; Tyr(3-NH2) = Nc1cc(C[C@H](N)C(=O)O)ccc1O; Hyp = O=C(O)[C@@H]1C[C@@H](O)CN1; Pentanoyl(4-Me) = CC(C)CCC(=O)*; Cit = NC(=O)NCCC[C@H](N)C(=O)O; Butoxycarbonyl = CCCCOC(=O)*; Nle = CCCC[C@H](N)C(=O)O; Orn = NCCC[C@H](N)C(=O)O; Nva = CCC[C@H](N)C(=O)O; Hexanoyl = CCCCCC(=O)*; Pentanoyl = CCCCC(=O)*

What was measured:
[1] = molecular target: T1, human uPAR (uPAR-Fc) (Homo sapiens, UniProt Q03405); test: Surface plasmon resonance (SPR) assay, single cycle kinetics; type: binding; details: pKD category for uPAR SPR activity assay; uPAR-Fc on Protein A-Chip, 25°C; read-out: pKD CAT (converted)
T1 construct: comprising amino acids Leu23-Arg303 according to UniProt entry Q03405.1; purchased R&D Systems 10378-UK-100
T1 sequence (Q03405 23-303): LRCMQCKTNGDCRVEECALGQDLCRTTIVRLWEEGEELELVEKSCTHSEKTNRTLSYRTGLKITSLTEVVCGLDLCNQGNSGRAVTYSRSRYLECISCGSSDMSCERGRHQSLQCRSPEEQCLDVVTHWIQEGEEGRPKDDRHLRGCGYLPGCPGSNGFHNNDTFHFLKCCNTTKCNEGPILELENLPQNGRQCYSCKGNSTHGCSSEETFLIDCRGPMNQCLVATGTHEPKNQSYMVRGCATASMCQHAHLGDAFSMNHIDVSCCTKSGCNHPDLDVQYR
Outline: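 uPAR-Fc (Leu23-Arg303 extracellular domains, human IgG1 Fc) captured on Protein A chip to ~2000 RU; single-cycle kinetics at 25°C in HEPES running buffer pH 7.4 with 0.1% DMSO. KD from double-referenced sensorgrams fitted to 1:1 Langmuir model, reported as pKD.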

[2] = molecular target: T2, uPAR-expressing HEC-265 human endometrial adenocarcinoma cells (Homo sapiens, UniProt Q03405); test: Competitive FACS binding assay; details: pIC50 category of FACS binding
T2 construct: Cell surface uPAR-expressing HEC-265 human endometrial adenocarcinoma cells; host or cells: HEC-265
T2 sequence (Q03405 23-335): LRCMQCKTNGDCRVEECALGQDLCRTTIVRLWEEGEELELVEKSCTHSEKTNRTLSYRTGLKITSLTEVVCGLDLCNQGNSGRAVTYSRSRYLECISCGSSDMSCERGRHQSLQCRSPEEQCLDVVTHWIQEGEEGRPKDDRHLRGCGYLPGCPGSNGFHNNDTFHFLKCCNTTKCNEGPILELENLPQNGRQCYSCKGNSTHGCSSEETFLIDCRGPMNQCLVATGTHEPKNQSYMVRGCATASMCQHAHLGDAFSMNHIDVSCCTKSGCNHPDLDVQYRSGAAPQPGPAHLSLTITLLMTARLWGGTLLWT
Outline: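 HEC-265 cells incubated 1 h at 4 °C with 10 nM biotinylated uPAR peptide tracer plus increasing test compound, then stained with APC-streptavidin on ice. Median APC fluorescence by flow cytometry; 4PL fit gives pIC50.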

Kd [1]	IC50 [2]	SMILES
< 1.58 nM	≤ 10 nM	CCCCCC(=O)N[C@@H](CC(=O)O)C(=O)N[C@@H](CC(C)C)C(=O)N[C@H]1CSSC[C@@H](C(N)=O)NC(=O)[C@H](CC(C)C)NC(=O)[C@H]([C@@H](C)CC)NC(=O)[C@H](C)NC(=O)[C@@H]2CCCN2C(=O)[C@H](Cc2ccccc2)NC(=O)[C@H](Cc2ccc(O)cc2)NC(=O)[C@H](CCSC)NC(=O)[C@H](CCCCNC(=O)CN2CCN(CC(=O)O)CCN(CC(=O)O)CCN(CC(=O)O)CC2)NC1=O [UPAR-235, Hex-Asp-Leu-[Cys-Lys(DOTA)-Met-Tyr-Phe-Pro-Ala-Ile-Leu-Cys]-NH2] (Hexanoyl-DLCK(DOTA)MYFPAILC-NH2; disulfide 3-12)
< 1.58 nM	≤ 10 nM	CCCCC(=O)N[C@H]1CSSC[C@@H](C(N)=O)NC(=O)[C@H](CCC)NC(=O)[C@H]([C@@H](C)CC)NC(=O)[C@@H]2C[C@@H](O)CN2C(=O)[C@@H]2CCCN2C(=O)[C@H](Cc2ccccc2)NC(=O)[C@H](Cc2ccc(O)cc2)NC(=O)[C@H](CCC(N)=O)NC(=O)CNC1=O [UPAR-236, Pent-[Cys-Gly-Gln-Tyr-Phe-Pro-Hyp-Ile-Nva-Cys]-NH2] (Pentanoyl-CGQYFP[Hyp]I[Nva]C-NH2; disulfide 1-10)
< 1.58 nM	≤ 10 nM	CCCC[C@@H]1NC(=O)[C@H](CCC(=O)O)NC(=O)[C@@H](NC(=O)[C@H](CC(C)C)NC(=O)[C@H](CC(=O)O)NC(C)=O)CSSC[C@@H](C(N)=O)NC(=O)[C@H](CC(C)C)NC(=O)[C@H]([C@@H](C)CC)NC(=O)[C@H](C)NC(=O)[C@@H]2CCCN2C(=O)[C@H](Cc2ccccc2)NC(=O)[C@H](Cc2ccc(O)cc2)NC1=O [UPAR-239, Ac-Asp-Leu-[Cys-Glu-Nle-Tyr-Phe-Pro-Ala-Ile-Leu-Cys]-NH2] (Ac-DLCE[Nle]YFPAILC-NH2; disulfide 3-12)
< 1.58 nM	≤ 10 nM	CC[C@H](C)[C@@H]1NC(=O)[C@@H]2C[C@@H](O)CN2C(=O)[C@@H]2CCCN2C(=O)[C@H](Cc2ccccc2)NC(=O)[C@H](Cc2ccc(O)cc2)NC(=O)[C@H](CCCCNC(=O)CN2CCN(CC(=O)O)CCN(CC(=O)O)CCN(CC(=O)O)CC2)NC(=O)[C@H](CCCNC(N)=O)NC(=O)[C@@H](NC(=O)CCC(C)C)CSSC[C@@H](C(N)=O)NC(=O)[C@H](CC(C)C)NC1=O [UPAR-240, iHex-[Cys-Cit-Lys(DOTA)-Tyr-Phe-Pro-Hyp-Ile-Leu-Cys]-NH2] ({Pentanoyl(4-Me)}-C[Cit]K(DOTA)YFP[Hyp]ILC-NH2; disulfide 1-10)

SMILES	Kd [1]	IC50 [2]
CCCCOC(=O)N[C@H]1CSSC[C@@H](C(N)=O)NC(=O)[C@H](CCC)NC(=O)[C@H]([C@@H](C)CC)NC(=O)[C@@H]2C[C@@H](O)CN2C(=O)[C@@H]2C[C@H](F)CN2C(=O)[C@H](Cc2ccccc2)NC(=O)[C@H](Cc2ccc(O)c(N)c2)NC(=O)[C@H](CCCNC(=O)CN2CCN(CC(=O)O)CCN(CC(=O)O)CCN(CC(=O)O)CC2)NC(=O)[C@H]([C@@H](C)O)NC1=O [UPAR-234, Butoc-[Cys-Thr-Orn(DOTA)-Ay3-Phe-4Cfp-Hyp-Ile-Nva-Cys]-NHz] (Butoxycarbonyl-CT[Orn](DOTA)[Tyr(3-NH2)]F[Pro(cis-4-F)][Hyp]I[Nva]C-NH2; disulfide 1-10)	< 1.58 nM	≤ 10 nM
CCCCOC(=O)N[C@H]1CSSC[C@@H](C(N)=O)NC(=O)[C@H](CCC)NC(=O)[C@H]([C@@H](C)CC)NC(=O)[C@@H]2C[C@@H](O)CN2C(=O)[C@@H]2C[C@H](F)CN2C(=O)[C@H](Cc2ccccc2)NC(=O)[C@H](Cc2ccc(O)cc2)NC(=O)[C@H](CCCCNC(=O)CN2CCN(CC(=O)O)CCN(CC(=O)O)CCN(CC(=O)O)CC2)NC(=O)[C@H]([C@@H](C)O)NC1=O [UPAR-237, Butoc-[Cys-Thr-Lys(DOTA)-Tyr-Phe-4Cfp-Hyp-Ile-Nva-Cys]-NH2] (Butoxycarbonyl-CTK(DOTA)YF[Pro(cis-4-F)][Hyp]I[Nva]C-NH2; disulfide 1-10)	< 1.58 nM	≤ 10 nM
